This passage reports IC50 results from US8592629B2, “Sulfonamide derivatives as Nav 1.7 inhibitors” (Pfizer Limited, priority 2010, dated 2013).

The target of this test is T1, Nav1.7 (or SCN9A) channel (Homo sapiens, UniProt Q15858).
T1 construct: expressed in transfected cells
In words: Nav1.7 (hSCN9A) block in HEK cells, PatchXpress 7000 automated electrophysiology, estimated IC50 (EIC50). The format is cell-based. The note with it: PatchXpress assay; HEK cells stably transfected with hSCN9A, voltage-clamped at V1/2 of inactivation. The essentials:
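Stable hSCN9A HEK cells voltage-clamped at empirically determined inactivation V1/2 (8 s prepulse), current activated by 20 msec step to 0 mV; % inhibition from current before vs after compound. EIC50 derived from single-point data as concentration × (100−%inhibition)/%inhibition, excluding <20% and >80% inhibition; PatchXpress unless stated.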

Counter-ions that a name gives are not always drawn.

T1 sequence (Q15858 whole entry): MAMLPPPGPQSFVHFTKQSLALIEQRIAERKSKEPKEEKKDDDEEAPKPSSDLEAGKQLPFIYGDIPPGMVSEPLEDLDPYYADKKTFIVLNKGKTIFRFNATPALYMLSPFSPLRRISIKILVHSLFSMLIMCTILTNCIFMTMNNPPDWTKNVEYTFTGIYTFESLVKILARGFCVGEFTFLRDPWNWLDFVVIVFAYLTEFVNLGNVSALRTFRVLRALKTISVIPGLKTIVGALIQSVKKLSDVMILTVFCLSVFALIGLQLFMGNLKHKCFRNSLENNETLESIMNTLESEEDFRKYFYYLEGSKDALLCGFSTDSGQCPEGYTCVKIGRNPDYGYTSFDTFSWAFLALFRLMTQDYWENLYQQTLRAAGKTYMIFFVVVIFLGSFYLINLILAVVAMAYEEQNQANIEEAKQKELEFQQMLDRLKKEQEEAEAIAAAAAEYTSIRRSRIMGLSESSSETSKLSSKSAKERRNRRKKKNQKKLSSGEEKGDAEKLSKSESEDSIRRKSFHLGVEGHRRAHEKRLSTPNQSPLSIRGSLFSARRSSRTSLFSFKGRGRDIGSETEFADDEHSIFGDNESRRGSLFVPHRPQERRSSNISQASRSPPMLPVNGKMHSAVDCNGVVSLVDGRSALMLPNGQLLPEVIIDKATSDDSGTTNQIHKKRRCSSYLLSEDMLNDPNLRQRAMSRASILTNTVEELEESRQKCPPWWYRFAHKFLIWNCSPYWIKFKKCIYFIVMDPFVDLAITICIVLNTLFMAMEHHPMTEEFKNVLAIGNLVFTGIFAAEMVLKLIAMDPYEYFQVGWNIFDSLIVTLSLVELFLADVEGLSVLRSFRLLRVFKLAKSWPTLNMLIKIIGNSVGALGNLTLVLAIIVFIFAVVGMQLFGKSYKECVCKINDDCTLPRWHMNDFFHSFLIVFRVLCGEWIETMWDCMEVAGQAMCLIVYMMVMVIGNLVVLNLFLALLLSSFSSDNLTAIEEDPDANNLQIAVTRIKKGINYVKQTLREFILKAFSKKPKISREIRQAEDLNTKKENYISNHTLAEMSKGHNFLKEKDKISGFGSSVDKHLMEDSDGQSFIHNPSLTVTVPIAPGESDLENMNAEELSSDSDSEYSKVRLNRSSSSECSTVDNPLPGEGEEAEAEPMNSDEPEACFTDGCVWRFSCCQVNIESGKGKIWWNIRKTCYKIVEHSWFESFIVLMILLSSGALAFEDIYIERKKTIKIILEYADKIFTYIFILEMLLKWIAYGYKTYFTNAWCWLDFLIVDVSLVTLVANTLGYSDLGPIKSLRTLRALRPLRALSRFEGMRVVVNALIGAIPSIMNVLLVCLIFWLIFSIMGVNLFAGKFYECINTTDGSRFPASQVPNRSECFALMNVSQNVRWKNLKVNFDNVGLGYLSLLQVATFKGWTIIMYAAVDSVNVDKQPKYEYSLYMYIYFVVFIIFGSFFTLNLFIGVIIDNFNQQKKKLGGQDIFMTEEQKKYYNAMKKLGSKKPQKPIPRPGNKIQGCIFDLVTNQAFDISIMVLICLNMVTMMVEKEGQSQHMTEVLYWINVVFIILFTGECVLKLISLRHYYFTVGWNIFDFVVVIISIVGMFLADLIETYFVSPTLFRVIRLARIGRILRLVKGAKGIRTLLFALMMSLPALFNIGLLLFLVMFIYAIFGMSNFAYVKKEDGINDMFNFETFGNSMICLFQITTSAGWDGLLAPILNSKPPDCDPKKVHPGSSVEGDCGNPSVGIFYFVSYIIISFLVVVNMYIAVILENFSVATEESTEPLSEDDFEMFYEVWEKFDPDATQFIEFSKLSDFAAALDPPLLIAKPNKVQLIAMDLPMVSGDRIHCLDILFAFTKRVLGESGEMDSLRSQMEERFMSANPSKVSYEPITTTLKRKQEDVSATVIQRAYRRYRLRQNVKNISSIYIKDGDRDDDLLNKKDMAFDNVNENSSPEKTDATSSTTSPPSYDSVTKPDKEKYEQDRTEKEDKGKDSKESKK

For `CS(=O)(=O)NC(=O)c1cc(Cl)c(Oc2cnc(N3CC(F)(F)C3)c(Cl)c2)cc1F` [Example 96, 5-Chloro-4-(5-chloro-6-(3,3-difluoroazetidin-1-yl)pyridin-3-yloxy)-2-fluoro-N-(methylsulfonyl)benzamide], the 50% inhibitory concentration (IC50) (as a rule, the concentration that gives 50% inhibition) is 73 nM. The value for `C[C@H](Oc1ncc(Oc2cc(F)c(C(=O)NS(C)(=O)=O)cc2Cl)cc1Cl)C(F)(F)F` [Example 98, 5-chloro-4-({5-chloro-6-[(1S)-2,2,2-trifluoro-1-methylethoxy]pyridin-3-yl}oxy)-2-fluoro-N-(methylsulfonyl)benzamide] was 12 nM. The value for `C[C@@H](Oc1ncc(Oc2cc(F)c(C(=O)NS(C)(=O)=O)cc2Cl)cc1Cl)C(F)(F)F` [Example 99, 5-chloro-4-({5-chloro-6-[(1R)-2,2,2-trifluoro-1-methylethoxy]pyridin-3-yl}oxy)-2-fluoro-N-(methylsulfonyl)benzamide] was 15 nM; that for `CS(=O)(=O)NC(=O)c1cc(Cl)c(Oc2cnc(Oc3ccccc3)c(Cl)c2)cc1F` [Example 100, 5-chloro-4-[(5-chloro-6-phenoxypyridin-3-yl)oxy]-2-fluoro-N-(methylsulfonyl)benzamide] was 72 nM.

Turning to `CC(C)(C)Oc1ncc(Oc2cc(F)c(C(=O)NS(C)(=O)=O)cc2Cl)cc1Cl` [Example 101, 4-[(6-tert-butoxy-5-chloropyridin-3-yl)oxy]-5-chloro-2-fluoro-N-(methylsulfonyl)benzamide], the IC50 is 34 nM. The value for `CS(=O)(=O)NC(=O)c1ccc(Nc2cnc(OC(C(F)(F)F)C(F)(F)F)c(Cl)c2)cc1` [Example 103, 4-(5-chloro-6-(1,1,1,3,3,3-hexafluoropropan-2-yloxy)Pyridin-3-ylamino)-N-(methylsulfonyl)benzamide] was 400 nM; that for `CC(F)(F)Oc1cc(Oc2cc(F)c(C(=O)NS(C)(=O)=O)cc2Cl)cnc1C1CC1` [Example 104, 5-chloro-4-(6-cyclopropyl-5-(1,1-difluoroethoxy)pyridin-3-yloxy)-2-fluoro-N-(methylsulfonyl)benzamide hydrochloride salt] was 67 nM; that for `CS(=O)(=O)NC(=O)c1cc(Cl)c(Oc2cnc(OCC(F)(F)C(F)F)c(C(F)(F)F)c2)cc1F` [Example 105, 5-Chloro-2-fluoro-N-(methylsulfonyl)-4-(6-(2,2,3,3-tetrafluoropropoxy)-5-(trifluoromethyl)pyridin-3-yloxy)benzamide] was 31 nM. For `CS(=O)(=O)NC(=O)c1cc(Cl)c(Oc2cnc(C3CC3)c(OC(F)F)c2)cc1F` [Example 106, 5-chloro-4-(6-cyclopropyl-5-(difluoromethoxy)pyridin-3-yloxy)-2-fluoro-N-(methylsulfonyl)benzamide], the IC50 was 1100 nM.

With `CS(=O)(=O)NC(=O)c1cc(Cl)c(Oc2cnc(C3CC3)c(C(F)(F)F)c2)cc1F` [Example 107, 5-chloro-4-(6-cyclopropyl-5-(trifluoromethyl)pyridin-3-yloxy)-2-fluoro-N-(methylsulfonyl)benzamide], the IC50 was 49 nM. The value for `CS(=O)(=O)NC(=O)c1cc(Cl)c(Oc2cnc(-c3ccccc3)c(Cl)c2)cc1F` [Example 108, 5-chloro-4-[(5-chloro-6-phenylpyridin-3-yl)oxy]-2-fluoro-N-(methylsulfonyl)benzamide] was 240 nM; that for `CS(=O)(=O)NC(=O)c1cc(Cl)c(Oc2cnc(C3CC(F)(F)C3)c(Cl)c2)cc1F` [Example 109, 5-chloro-4-{[5-chloro-6-(3,3-difluorocyclobutyl)pyridin-3-yl]oxy}-2-fluoro-N-(methylsulfonyl)benzamide] was 97 nM. As to `CS(=O)(=O)NC(=O)c1cc(Cl)c(Oc2cnc(C3CC3)c(OC(F)(F)F)c2)cc1F` [Example 110, 5-chloro-4-(6-cyclopropyl-5-(trifluoromethoxy)pyridin-3-yloxy)-2-fluoro-N-(methylsulfonyl)benzamide], the IC50 was 100 nM.

Regarding `CC(C)c1ncc(Oc2cc(F)c(C(=O)NS(C)(=O)=O)cc2Cl)cc1Cl` [Example 111, 5-Chloro-4-(5-chloro-6-isopropylpyridin-3-yloxy)-2-fluoro-N-(methylsulfonyl)benzamide], the half-maximal inhibitory concentration (IC50) was 290 nM. With `CS(=O)(=O)NC(=O)c1cc(Cl)c(Oc2cnc(C3CCC3)c(Cl)c2)cc1F` [Example 112, 5-chloro-4-(5-chloro-6-cyclobutylpyridin-3-yloxy)-2-fluoro-N-(methylsulfonyl)benzamide], the IC50 was 19 nM.

As to `CS(=O)(=O)NC(=O)c1cc(Cl)c(Oc2cnc(C3CC3)c(C3CC3)c2)cc1F` [Example 113, 5-chloro-4-[(5,6-dicyclopropylpyridin-3-yl)oxy]-2-fluoro-N-(methylsulfonyl)benzamide], the IC50 was 53 nM. Take `CC(C)N(C)c1ncc(Oc2cc(F)c(C(=O)NS(C)(=O)=O)cc2F)cc1Cl` [Example 114, 4-({5-chloro-6-[isopropyl(methyl)amino]pyridin-3-yl}oxy)-2,5-difluoro-N-(methylsulfonyl)benzamide]: the 50% inhibitory concentration (IC50) was 210 nM. The value for `CS(=O)(=O)NC(=O)c1cc(F)c(Oc2cnc(NCC3CCC3)c(Cl)c2)cc1F` [Example 115, 4-({5-chloro-6-[(cyclobutylmethyl)amino]pyridin-3-yl}oxy)-2,5-difluoro-N-(methylsulfonyl)benzamide] was 54 nM.

As for `CN(c1ncc(Oc2cc(F)c(C(=O)NS(C)(=O)=O)cc2F)cc1Cl)C1CC1` [Example 116, 4-({5-chloro-6-[cyclopropyl(methyl)amino]pyridin-3-yl}oxy)-2,5-difluoro-N-(methylsulfonyl)benzamide], the IC50 was 980 nM. The value for `CCN(C)c1ncc(Oc2cc(F)c(C(=O)NS(C)(=O)=O)cc2F)cc1Cl` [Example 117, 4-({5-chloro-6-[ethyl(methyl)amino]pyridin-3-yl}oxy)-2,5-difluoro-N-(methylsulfonyl)benzamide] was 900 nM; that for `CCN1CCN(c2ncc(Oc3cc(F)c(C(=O)NS(C)(=O)=O)cc3F)cc2Cl)CC1` [Example 118, 4-{[5-chloro-6-(4-ethylpiperazin-1-yl)pyridin-3-yl]oxy}-2,5-difluoro-N-(methylsulfonyl)benzamide] was greater than 1000 nM; that for `CS(=O)(=O)NC(=O)c1cc(F)c(Oc2cnc(N3C[C@@H](F)[C@H](F)C3)c(Cl)c2)cc1F` [Example 119, 4-({5-chloro-6-[(3R,4R)-3,4-difluoropyrrolidin-1-yl]pyridin-3-yl}oxy)-2,5-difluoro-N-(methylsulfonyl)benzamide] was 400 nM. The value for `CS(=O)(=O)NC(=O)c1cc(F)c(Oc2cnc(N[C@H]3CC[C@H](F)C3)c(Cl)c2)cc1F` [Example 120, 4-[(5-chloro-6-{[(1S,3S)-3-fluorocyclopentyl]amino}pyridin-3-yl)oxy]-2,5-difluoro-N-(methylsulfonyl)benzamide] was 660 nM; that for `COCC1CCCN1c1ncc(Oc2cc(F)c(C(=O)NS(C)(=O)=O)cc2F)cc1Cl` (stereo not drawn) [Example 121, 4-({5-chloro-6-[2-(methoxymethyl)pyrrolidin-1-yl]pyridin-3-yl}oxy)-2,5-difluoro-N-(methylsulfonyl)benzamide] was 680 nM; that for `COC(C)(C)CNc1ncc(Oc2cc(F)c(C(=O)NS(C)(=O)=O)cc2F)cc1Cl` [Example 122, 4-({5-chloro-6-[(2-methoxy-2-methylpropyl)amino]pyridin-3-yl}oxy)-2,5-difluoro-N-(methylsulfonyl)benzamide] was 250 nM. The value for `CS(=O)(=O)NC(=O)c1cc(F)c(Oc2cnc(N3CCC(F)(F)C3)c(Cl)c2)cc1F` [Example 123, 4-{[5-chloro-6-(3,3-difluoropyrrolidin-1-yl)pyridin-3-yl]oxy}-2,5-difluoro-N-(methylsulfonyl)benzamide] was 120 nM; that for `CS(=O)(=O)NC(=O)c1cc(F)c(Oc2cnc(N3CCC(F)C3)c(Cl)c2)cc1F` (stereo not drawn) [Example 124, 4-{[5-chloro-6-(3-fluoropyrrolidin-1-yl)pyridin-3-yl]oxy}-2,5-difluoro-N-(methylsulfonyl)benzamide] was 640 nM. Turning to `COC1(C)CN(c2ncc(Oc3cc(F)c(C(=O)NS(C)(=O)=O)cc3F)cc2Cl)C1` [Example 125, 4-{[5-chloro-6-(3-methoxy-3-methylazetidin-1-yl)pyridin-3-yl]oxy}-2,5-difluoro-N-(methylsulfonyl)benzamide], the IC50 is 960 nM. The value for `CC1CCN(c2ncc(Oc3cc(F)c(C(=O)NS(C)(=O)=O)cc3F)cc2Cl)CC1` [Example 126, 4-{[5-chloro-6-(4-methylpiperidin-1-yl)pyridin-3-yl]oxy}-2,5-difluoro-N-(methylsulfonyl)benzamide] was 470 nM; that for `CN1CCCC(Nc2ncc(Oc3cc(F)c(C(=O)NS(C)(=O)=O)cc3F)cc2Cl)C1` (stereo not drawn) [Example 127, 4-({5-chloro-6-[(1-methylpiperidin-3-yl)amino]pyridin-3-yl}oxy)-2,5-difluoro-N-(methylsulfonyl)benzamide] was greater than 1000 nM. The value for `CO[C@@H]1CCCN(c2ncc(Oc3cc(F)c(C(=O)NS(C)(=O)=O)cc3F)cc2Cl)C1` [Example 128, 4-({5-chloro-6-[(3R)-3-methoxypiperidin-1-yl]pyridin-3-yl}oxy)-2,5-difluoro-N-(methylsulfonyl)benzamide] was 2400 nM. The value for `CCC(COC)Nc1ncc(Oc2cc(F)c(C(=O)NS(C)(=O)=O)cc2F)cc1Cl` (stereo not drawn) [Example 129, 4-[(5-chloro-6-{[1-(methoxymethyl)propyl]amino}pyridin-3-yl)oxy]-2,5-difluoro-N-(methylsulfonyl)benzamide] was 540 nM; that for `CS(=O)(=O)NC(=O)c1cc(F)c(Oc2cnc(N3CC(F)(F)C3)c(Cl)c2)cc1F` [Example 130, 4-{[5-chloro-6-(3,3-difluoroazetidin-1-yl)pyridin-3-yl]oxy}-2,5-difluoro-N-(methylsulfonyl)benzamide] was 740 nM.
